{"source": "patent US20080299188A1", "about": "“CONTROLLED RELEASE DOSAGE FORMS COMBINING IMMEDIATE RELEASE AND SUSTAINTED RELEASE OF LOW-SOLUBILITY DRUG” (Pfizer Inc., priority 2007, published 2008)", "type_in_all_cases": "physicochemical", "key": {"[1]": {"assay": "solubility in phosphate buffered saline (pH 6.5)", "conditions": "expressed as the free base", "source_text": "An example of a drug having a crystalline highly soluble salt form is ziprasidone. Ziprasidone hydrochloride monohydrate has a solubility of about 10 μgA/mL (expressed as the free base) in phosphate buffered saline (pH 6.5), whereas the free base form has a solubility of less than about 0.2 μgA/mL under the same conditions. Thus, crystalline ziprasidone hydrochloride is a solubility-improved form relative to the crystalline free base form of drug."}, "[2]": {"assay": "microcentrifuge dissolution test in MFD solution", "conditions": "during the initial ninety minutes", "procedure": "Microcentrifuge dissolution tests were performed to evaluate the hydrochloride crystalline salt form of ziprasidone to verify that it was a solubility-improved form of ziprasidone. For this test, a sufficient amount of ziprasidone hydrochloride monohydrate was added to a microcentrifuge test tube so that the concentration of ziprasidone would have been 200 μgA/mL, if all of the ziprasidone had dissolved. The tests were run in duplicate. The tubes were placed in a 37° C. temperature-controlled chamber, and 1.8 mL MFD solution at pH 6.5 and 290 mOsm/kg was added to each respective tube. The samples were quickly mixed using a vortex mixer for about 60 seconds. The samples were centrifuged at 13,000 G at 37° C. for 1 minute prior to collecting a sample. The resulting supernatant solution was then sampled and diluted 1:5 (by volume) with methanol. Samples were analyzed by high-performance liquid chromatography (HPLC) at a UV absorbance of 315 nm using a Zorbax RxC8 Reliance column and a mobile phase consisting of 55% (50 mM potassium dihydrogen phosphate, pH 6.5)/45% acetonitrile. Drug concentration was calculated by comparing UV absorbance of samples to the absorbance of drug standards. The contents of each tube were mixed on the vortex mixer and allowed to stand undisturbed at 37° C. until the next sample was taken. Samples were collected at 4, 10, 20, 40, 90, and 1200 minutes following administration to the MFD solution.\nA similar test was performed with the crystalline ziprasidone free base as a control, and a sufficient amount of material was added so that the concentration of compound would have been 200 μgA/mL, if all of the ziprasidone had dissolved.\nThe concentrations of ziprasidone obtained in these tests were used to determine the maximum dissolved concentration of ziprasidone (“MDC90”) and the area under the concentration-versus-time curve (“AUC90”) during the initial ninety minutes."}, "[3]": {"assay": "in vitro membrane permeation test", "procedure": "The ziprasidone coated crystals were evaluated in vitro using a membrane permeation test. An Accurel® PP 1E microporous polypropylene membrane was obtained from Membrana GmbH (Wuppertal, Germany). The membrane was washed in isopropyl alcohol and rinsed in methanol in a sonicating bath for 1 minute at ambient temperature, and then allowed to air dry at ambient temperature. The feed side of the membrane was then plasma-treated to render it hydrophilic by placing a sample of the membrane in a plasma chamber. The atmosphere of the plasma chamber was saturated with water vapor at a pressure of 550 mtorr. A plasma was then generated using radio frequency (RF) power inductively coupled into the chamber via annular electrodes at a power setting of 50 watts for 45 seconds. The contact angle of a drop of water placed on the surface of the plasma-treated membrane was about 40°. […]\nTo form the feed solution, a 1.39 mg sample of the coated crystals was weighed into the feed reservoir. […] Samples were then diluted in […] IPA and analyzed using HPLC. […]\nThe maximum flux of drug across the membrane (in units of mgA/cm^2-min) was determined by performing a least-squares fit to the data in Table 3 from 0 to 60 minutes to obtain the slope, multiplying the slope by the permeate volume (5 ml), and dividing by the membrane area (4.9 cm^2)."}}, "note": "Where a name gives a salt, the structure may show the parent alone.", "data": [{"smiles": "O=C1Cc2cc(CCN3CCN(c4nsc5ccccc45)CC3)c(Cl)cc2N1", "note": "[Ziprasidone Free Base, ziprasidone]", "values": [{"measurement": "solubility", "setting": "[1]; listed as free base form", "value": "less than 0.2 μgA/mL"}, {"measurement": "AUC90 (area under the concentration-versus-time curve)", "setting": "[2]", "value": 120, "unit": "min·µgA/mL"}, {"measurement": "MDC90 (maximum dissolved concentration of ziprasidone)", "setting": "[2]", "value": 2, "unit": "µgA/mL"}]}, {"smiles": "O=C1Cc2cc(CCN3CCN(c4nsc5ccccc45)CC3)c(Cl)cc2N1", "note": "[Ziprasidone hydrochloride monohydrate, ziprasidone hydrochloride monohydrate]", "values": [{"measurement": "solubility", "setting": "[1]; hydrochloride monohydrate", "value": "about 10 μgA/mL"}, {"measurement": "Concentration (permeate solution)", "setting": "[3]; feed MFD solution 100 μgA/ml if all dissolved, permeate 60 wt % decanol in decane, 37° C., time 0 min", "value": 0.5, "unit": "μgA/ml"}, {"measurement": "Initial Flux of Ziprasidone", "setting": "[3]; least-squares fit of Table 3 data from 0 to 60 minutes, permeate volume 5 ml, membrane area 4.9 cm^2", "value": 0.16, "unit": "µgA/cm²·min"}, {"measurement": "AUC90 (area under the concentration-versus-time curve)", "setting": "[2]; hydrochloride monohydrate", "value": 1700, "unit": "min·µgA/mL"}, {"measurement": "MDC90 (maximum dissolved concentration of ziprasidone)", "setting": "[2]; hydrochloride monohydrate", "value": 22, "unit": "µgA/mL"}]}]}
